Two compounds from article PMC8571951, “An activity‐based bioprobe differentiates a novel small molecule inhibitor from a LOXL2 antibody and provides renewed promise for anti‐fibrotic therapeutic strategies” (Clinical and Translational Medicine, 2021) can be followed below.

The target of one test is T1, Recombinant human LOXL1 (Homo sapiens, UniProt Q08397).
T1 sequence (Q08397 96-574): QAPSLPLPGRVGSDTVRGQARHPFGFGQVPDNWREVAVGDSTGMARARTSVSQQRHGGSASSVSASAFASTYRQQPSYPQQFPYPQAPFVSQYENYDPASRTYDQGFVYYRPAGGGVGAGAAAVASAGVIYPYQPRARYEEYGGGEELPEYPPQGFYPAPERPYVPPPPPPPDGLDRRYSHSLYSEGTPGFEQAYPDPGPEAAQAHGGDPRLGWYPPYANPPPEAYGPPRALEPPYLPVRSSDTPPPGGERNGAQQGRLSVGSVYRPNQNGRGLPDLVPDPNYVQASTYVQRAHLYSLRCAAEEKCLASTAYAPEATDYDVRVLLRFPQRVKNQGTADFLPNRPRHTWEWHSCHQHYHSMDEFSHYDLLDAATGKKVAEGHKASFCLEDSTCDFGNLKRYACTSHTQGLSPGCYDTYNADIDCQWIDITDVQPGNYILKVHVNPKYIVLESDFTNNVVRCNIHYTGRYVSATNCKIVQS
As to the kind of experiment: Standard Amplex Red assay, rh LOXL1. Format: biochemical. The settings on record: 30 min pre-incubation. An excerpt:
(§1) FIGURE 1 Characteristics of the activity‐based probe (ABP) PXS‐5878. (A) Chemical structure of PXS‐5878, with functional subunits denoted with different colours. The fluoroallylamine moiety (blue) was designed to interact with the lysine tyrosylquinone (LTQ) co‐factor within the lysyl oxidase active sites. An extended linker (green) was incorporated to provide optimal separation between the reactive functional group and the tag, avoiding unfavourable steric hindrance. Biotin was selected as a tag, with higher sensitivity found to be achieved using a double tag (red), resulting in PXS‐5878 as the preferred ABP. (B) Concentration‐dependent inhibition of recombinant human (rh) lysyl oxidase‐like 1‐4 (LOXL1‐4) and native bovine LOX in a standard Amplex Red assay with 30 min pre‐incubation; n = 3–4 independent experiments, standard error of mean (SEM). Native bovine LOX was used as a surrogate for human LOX as both enzymes have similar pharmacology for fluoroallylamines.[2], [9] (C) Irreversible nature of PXS‐5878 enzyme inhibition confirmed using a jump dilution assay. […]
(§2) FIGURE 2 Characteristics of PXS‐5338 and inhibition of lysyl oxidase‐like 2 (LOXL2) enzymatic activity in vitro and in vivo. […] (B) Tissue levels of PXS‐5338 measured 1 and 4 h after a single oral dose of 30 mg/kg in the rat. […]

The next test has as its target T2, LOXL3 (Homo sapiens, UniProt P58215).
T2 sequence (P58215 26-753): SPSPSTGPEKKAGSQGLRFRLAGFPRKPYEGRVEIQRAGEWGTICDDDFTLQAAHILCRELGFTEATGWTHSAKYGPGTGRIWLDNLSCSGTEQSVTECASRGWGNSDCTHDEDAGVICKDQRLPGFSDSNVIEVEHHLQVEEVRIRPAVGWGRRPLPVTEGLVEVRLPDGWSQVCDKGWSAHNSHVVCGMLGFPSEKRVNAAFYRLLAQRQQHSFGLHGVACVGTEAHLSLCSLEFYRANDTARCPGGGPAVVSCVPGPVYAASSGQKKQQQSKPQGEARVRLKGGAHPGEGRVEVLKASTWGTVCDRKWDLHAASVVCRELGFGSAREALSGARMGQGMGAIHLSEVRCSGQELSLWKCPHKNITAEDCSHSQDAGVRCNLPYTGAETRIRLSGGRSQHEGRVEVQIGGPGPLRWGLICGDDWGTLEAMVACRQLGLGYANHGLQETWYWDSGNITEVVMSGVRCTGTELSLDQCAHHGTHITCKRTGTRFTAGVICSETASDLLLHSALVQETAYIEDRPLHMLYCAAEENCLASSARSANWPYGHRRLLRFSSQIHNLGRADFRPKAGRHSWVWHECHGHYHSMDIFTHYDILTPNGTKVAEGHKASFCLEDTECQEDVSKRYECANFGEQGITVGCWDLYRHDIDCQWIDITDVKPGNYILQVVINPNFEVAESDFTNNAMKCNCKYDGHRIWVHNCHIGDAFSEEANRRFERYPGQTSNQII
As to the kind of experiment: Standard Amplex Red assay, rh LOXL3. The settings on record: 30 min pre-incubation. The format is biochemical.
Description: as §1, §2

For orientation: pIC50 means the negative decadic logarithm of the IC50, by convention in mol/L.

pIC50: −log10 of the molar value.

For the compound `NC/C=C(\F)CS(=O)(=O)c1cccc(Cn2cc(-c3cc(OCCCc4cn(CCCCC[C@@H]5SC[C@@H]6NC(=O)N[C@@H]65)nn4)cc(OCCCc4cn(CCCCC[C@@H]5SC[C@@H]6NC(=O)N[C@@H]65)nn4)c3)nn2)c1` [PXS-5878], the pIC50 on Recombinant human LOXL1 was 5.75; at LOXL3, 6.01.

Turning to `CC(C)c1c(Cc2ccc(S(C)(=O)=O)nc2)c2ncccc2n1C/C(F)=C/CN` [PXS-5338], the pIC50 is 5.60 at Recombinant human LOXL1 and 6.41 at LOXL3.
